US12421207B2 (CMG Pharmaceutical Co., Ltd., priority 2022, dated 2025)

Assays:
PC9/ER cells = assay: Cell viability assay (CellTiter-Glo 2.0), erlotinib-resistant PC9/ER cells; type: cell-based; details: Homo sapiens, PC-9/ER; Table 4; 72 h drug treatment, combinations of EGFR TKIs and inhibitor of Formula (I); read-out: Relative cell viability; IC50 PC9ER
Description: (§1) To explore c-MET and AXL mechanisms of EGFR TKI resistance, resistant cells of the EGFR TKI hypersensitive EGFR exon 19 mutant NSCLC cell line, HCC827 and PC9 were generated by exposing these cells to increasing concentrations of EGFR TKI for over 3 months.
(§2) Gefitinib-resistant cells were referred to as HCC827/GR. […] Osimertinib-resistant cells were referred to as HCC827/OR.

HCC827/ER cells = assay: Cell viability assay (CellTiter-Glo 2.0), erlotinib-resistant HCC827/ER cells; type: cell-based, human; details: Homo sapiens, HCC827ER, Table 4, 72 h drug treatment, combinations of EGFR TKIs and inhibitor of Formula (I), read-out: Relative cell viability
Description: as §1, §2

HCC827/GR cells = assay: Cell viability assay (CellTiter-Glo 2.0), gefitinib-resistant HCC827/GR cells; type: cell-based, human; details: Homo sapiens, HCC827; Table 4; 72 h drug treatment, combinations of EGFR TKIs and inhibitor of Formula (I); read-out: Relative cell viability; IC50 HCC827GR
Description: as §1
The human cell line HCC827 was purchased from the American Type Culture Collection (Manassas, VA), and the PC9 cell line was obtained from RIKEN Cell Bank (Ibaraki, Japan). […] Gefitinib-resistant cells were referred to as HCC827/GR. […] Osimertinib-resistant cells were referred to as HCC827/OR.
(§3) Cell viability assays were carried out by plating 1,000 cells per well of HCC827 or PC9 resistant cells, respectively, into white transparent-bottom 384-well plates. The cells were treated with each TKI across a 10-dose range from 1 nM to 10,000 nM. After 72 h of drug treatment, cell viability was measured using the CellTiter-Glo 2.0 assay (Promega, Madison, WI).
as §3

HCC827/OR cells = assay: Cell viability assay (CellTiter-Glo 2.0), osimertinib-resistant HCC827/OR cells; type: cell-based, human; details: Homo sapiens, HCC827; Table 4; 72 h drug treatment, combinations of EGFR TKIs and inhibitor of Formula (I); read-out: Relative cell viability; IC50 HCC827OR
Description: as §1, §2

Row | IC50 (PC9/ER cells) | IC50 (HCC827/ER cells) | IC50 (HCC827/GR cells) | IC50 (HCC827/OR cells) | Structure (SMILES)
1 | < 0.1 µM | < 0.1 µM | < 0.1 µM | < 0.1 µM | Cc1nc(Cn2cc(C(=O)Nc3ccc(Oc4ccnc(N)c4C#CC(C)(C)N4CCOCC4)c(F)c3)c(=O)n(-c3ccc(F)cc3)c2=O)cs1 [Example 39, N-(4-((2-amino-3-(3-methyl-3-morpholinobut-1-yn-1-yl)pyridin-4-yl)oxy)-3-fluorophenyl)-3-(4-fluorophenyl)-1-((2-methylthiazol-4-yl)methyl)-2,4-dioxo-1,2,3,4-tetrahydropyrimidine-5-carboxamide]
2 | < 0.1 µM | < 0.1 µM | < 0.1 µM | < 1 µM | Cc1nc(Cn2cc(C(=O)Nc3ccc(Oc4ccnc(N)c4C#CCN4CCOCC4)c(F)c3)c(=O)n(-c3ccc(F)cc3)c2=O)cs1 [Example 40, N-(4-((2-amino-3-(3-morpholinoprop-1-yn-1-yl)pyridin-4-yl)oxy)-3-fluorophenyl)-3-(4-fluorophenyl)-1-((2-methylthiazol-4-yl)methyl)-2,4-dioxo-1,2,3,4-tetrahydropyrimidine-5-carboxamide]
3 | < 1 µM | < 1 µM | < 1 µM | < 1 µM | Cc1nc(Cn2cc(C(=O)Nc3ccc(Oc4ccnc(N)c4C#CC(C)(C)N4CCNCC4)c(F)c3)c(=O)n(-c3ccc(F)cc3)c2=O)cs1 [Example 41, N-(4-((2-amino-3-(3-methyl-3-(piperazin-1-yl)but-1-yn-1-yl)pyridin-4-yl)oxy)-3-fluorophenyl)-3-(4-fluorophenyl)-1-((2-methylthiazol-4-yl)methyl)-2,4-dioxo-1,2,3,4-tetrahydropyrimidine-5-carboxamide]
4 | < 1 µM | < 0.1 µM | < 0.1 µM | < 1 µM | Cc1nc(Cn2cc(C(=O)Nc3ccc(Oc4ccnc(N)c4C#CC(C)(C)N4CCN(C)CC4)c(F)c3)c(=O)n(-c3ccc(F)cc3)c2=O)cs1 [Example 42, N-(4-((2-amino-3-(3-methyl-3-(4-methylpiperazin-1-yl)but-1-yn-1-yl)pyridin-4-yl)oxy)-3-fluorophenyl)-3-(4-fluorophenyl)-1-((2-methylthiazol-4-yl)methyl)-2,4-dioxo-1,2,3,4-tetrahydropyrimidine-5-carboxamide]
5 | < 0.1 µM | < 0.1 µM | < 0.1 µM | < 1 µM | Cc1nc(Cn2cc(C(=O)Nc3ccc(Oc4ccnc(N)c4C#CCC4CCN(C)CC4)c(F)c3)c(=O)n(-c3ccc(F)cc3)c2=O)cs1 [Example 43, N-(4-((2-amino-3-(3-(1-methylpiperidin-4-yl)prop-1-yn-1-yl)pyridin-4-yl)oxy)-3-fluorophenyl)-3-(4-fluorophenyl)-1-((2-methylthiazol-4-yl)methyl)-2,4-dioxo-1,2,3,4-tetrahydropyrimidine-5-carboxamide]
6 | < 1 µM | < 1 µM | < 0.1 µM | < 1 µM | Cc1nc(Cn2cc(C(=O)Nc3ccc(Oc4ccnc(N)c4C#CCC4CCNCC4)c(F)c3)c(=O)n(-c3ccc(F)cc3)c2=O)cs1 [Example 44, N-(4-((2-amino-3-(3-(piperidin-4-yl)prop-1-yn-1-yl)pyridin-4-yl)oxy)-3-fluorophenyl)-3-(4-fluorophenyl)-1-((2-methylthiazol-4-yl)methyl)-2,4-dioxo-1,2,3,4-tetrahydropyrimidine-5-carboxamide]
7 | < 1 µM | < 1 µM | < 1 µM | < 10 µM | CN1CCC(CC#Cc2c(Oc3ccc(NC(=O)c4nn(C)c(=O)n(-c5ccc(F)cc5)c4=O)cc3F)ccnc2N)CC1 [Example 45, N-(4-((2-amino-3-(3-(1-methylpiperidin-4-yl)prop-1-yn-1-yl)pyridin-4-yl)oxy)-3-fluorophenyl)-4-(4-fluorophenyl)-2-methyl-3,5-dioxo-2,3,4,5-tetrahydro-1,2,4-triazine-6-carboxamide]
8 | < 10 µM | < 10 µM | < 1 µM | < 10 µM | Cn1nc(C(=O)Nc2ccc(Oc3ccnc(N)c3C#CCC3CCNCC3)c(F)c2)c(=O)n(-c2ccc(F)cc2)c1=O [Example 46, N-(4-((2-amino-3-(3-(piperidin-4-yl)prop-1-yn-1-yl)pyridin-4-yl)oxy)-3-fluorophenyl)-4-(4-fluorophenyl)-2-methyl-3,5-dioxo-2,3,4,5-tetrahydro-1,2,4-triazine-6-carboxamide]
9 | < 10 µM | < 10 µM | < 10 µM | < 10 µM | Cn1nc(C(=O)Nc2ccc(Oc3ccnc(N)c3C#CC(C)(C)N3CCNCC3)c(F)c2)c(=O)n(-c2ccc(F)cc2)c1=O [Example 47, N-(4-(2-amino-3-(3-methyl-3-(piperazin-1-yl)but-1-ynyl)pyridin-4-yloxy)-3-fluorophenyl)-4-(4-fluorophenyl)-2-methyl-3,5-dioxo-2,3,4,5-tetrahydro-1,2,4-triazine-6-carboxamide]
10 | < 1 µM | < 1 µM | < 1 µM | < 1 µM | Cn1nc(C(=O)Nc2ccc(Oc3ccnc(N)c3C#CC(C)(C)N3CCOCC3)c(F)c2)c(=O)n(-c2ccc(F)cc2)c1=O [Example 48, N-(4-(2-amino-3-(3-methyl-3-morpholinobut-1-ynyl)pyridin-4-yloxy)-3-fluorophenyl)-4-(4-fluorophenyl)-2-methyl-3,5-dioxo-2,3,4,5-tetrahydro-1,2,4-triazine-6-carboxamide]
11 | < 1 µM | < 10 µM | < 1 µM | < 10 µM | Cn1nc(C(=O)Nc2ccc(Oc3ccnc(N)c3C#CCN3CCOCC3)c(F)c2)c(=O)n(-c2ccc(F)cc2)c1=O [Example 49, N-(4-(2-amino-3-(3-morpholinoprop-1-ynyl)pyridin-4-yloxy)-3-fluorophenyl)-4-(4-fluorophenyl)-2-methyl-3,5-dioxo-2,3,4,5-tetrahydro-1,2,4-triazine-6-carboxamide]
12 | < 0.1 µM | < 0.1 µM | < 1 µM | < 0.1 µM | CC(C)(C#Cc1c(Oc2ccc(NC(=O)c3c[nH]c(=O)n(-c4ccc(F)cc4)c3=O)cc2F)ccnc1N)N1CCOCC1 [Example 50, N-(4-(2-amino-3-(3-methyl-3-morpholinobut-1-ynyl)pyridin-4-yloxy)-3-fluorophenyl)-3-(4-fluorophenyl)-2,4-dioxo-1,2,3,4-tetrahydropyrimidine-5-carboxamide]
13 | < 1 µM | < 1 µM | < 10 µM | < 1 µM | Nc1nccc(Oc2ccc(NC(=O)c3c[nH]c(=O)n(-c4ccc(F)cc4)c3=O)cc2F)c1C#CCN1CCOCC1 [Example 51, N-(4-(2-amino-3-(3-morpholinoprop-1-ynyl)pyridin-4-yloxy)-3-fluorophenyl)-3-(4-fluorophenyl)-2,4-dioxo-1,2,3,4-tetrahydropyrimidine-5-carboxamide]
14 | < 10 µM | < 10 µM | < 10 µM | > 10 µM | CC(C)(C#Cc1c(Oc2ccc(NC(=O)c3c[nH]c(=O)n(-c4ccc(F)cc4)c3=O)cc2F)ccnc1N)N1CCNCC1 [Example 52, N-(4-(2-amino-3-(3-methyl-3-(piperazin-1-yl)but-1-ynyl)pyridin-4-yloxy)-3-fluorophenyl)-3-(4-fluorophenyl)-2,4-dioxo-1,2,3,4-tetrahydropyrimidine-5-carboxamide]
15 | < 10 µM | < 1 µM | < 10 µM | < 10 µM | Nc1nccc(Oc2ccc(NC(=O)c3c[nH]c(=O)n(-c4ccc(F)cc4)c3=O)cc2F)c1C#CCC1CCNCC1 [Example 53, N-(4-(2-amino-3-(3-(piperidin-4-yl)prop-1-ynyl)pyridin-4-yloxy)-3-fluorophenyl)-3-(4-fluorophenyl)-2,4-dioxo-1,2,3,4-tetrahydropyrimidine-5-carboxamide]
16 | < 1 µM | < 1 µM | < 1 µM | < 1 µM | CN1CCC(CC#Cc2c(Oc3ccc(NC(=O)c4c[nH]c(=O)n(-c5ccc(F)cc5)c4=O)cc3F)ccnc2N)CC1 [Example 54, N-(4-(2-amino-3-(3-(1-methylpiperidin-4-yl)prop-1-ynyl)pyridin-4-yloxy)-3-fluorophenyl)-3-(4-fluorophenyl)-2,4-dioxo-1,2,3,4-tetrahydropyrimidine-5-carboxamide]
17 | < 1 µM | < 0.1 µM | < 0.1 µM | < 1 µM | CC(C)(C#Cc1c(Oc2ccc(NC(=O)c3cn(C4CCOCC4)c(=O)n(-c4ccc(F)cc4)c3=O)cc2F)ccnc1N)N1CCOCC1 [Example 55, N-(4-(2-amino-3-(3-methyl-3-morpholinobut-1-ynyl)pyridin-4-yloxy)-3-fluorophenyl)-3-(4-fluorophenyl)-2,4-dioxo-1-(tetrahydro-2H-pyran-4-yl)-1,2,3,4-tetrahydropyrimidine-5-carboxamide]
